Our source for the IC50 values is PubChem BioAssay AID489041 (Sanford-Burnham Center for Chemical Genomics, 2010).

Structures are written as SMILES. Activity calls are given as the source filed them. No rule for the calls is given here.

In this experiment the test system is HEK-293T NF-kB luciferase reporter counterscreen, luminescence. The experiment in a line: NF-kB reporter inhibition in HEK-293T, dose response, counter-screen for T-cell antigen receptor NF-kB inhibitors, HEK-293T cells, luminescence (AID 489041). Background: A counterscreen serves to expose hits that act by an unwanted route or on another target.
The IC50 is the concentration that gives 50% inhibition. For the compound `Cc1ccc(O)c(NC(=O)c2cc(-c3ccccc3)on2)c1`, the IC50 was > 80 µM (inactive).

Turning to `O=C(NN=Cc1c(O)ccc2ccccc12)c1ccc2c(c1)OCO2`, the IC50 was 0.74 µM.

For the compound `CC1(C)Cc2c(sc(NC(=O)COc3cccc4ccccc34)c2C#N)C(C)(C)N1`, the IC50 was > 80 µM (inactive).

On to `COc1ccc(/C=N/NC(=O)c2[nH]c3ccc(Br)cc3c2-c2ccccc2)cc1`, for which the IC50 was 21.1 µM (inactive).

Regarding `Oc1ccc(Nc2nc3ccccc3nc2Nc2ccc(O)cc2)cc1`, the IC50 was 17.6 µM.

In the case of `N/C(=N\OCc1ccc([N+](=O)[O-])cc1)c1ccccn1`, the IC50 is 1.78 µM.

Regarding `Cn1nc(CC(=O)Nc2ccc(N3CCN(C(=O)OC(C)(C)C)CC3)cc2)c2ccccc2c1=O`, the IC50 is 0.76 µM.

Turning to `CCOCCCNC(=O)c1cc2c(=O)n3cccc(C)c3nc2n1C`, the IC50 was > 80 µM (inactive).

Regarding `C/C(=N\NC(=O)c1cc(C)nc2ccccc12)c1ccccn1`, the IC50 was 3.06 µM.

Regarding `CCOC(=O)CC1CCCCN1C(=O)c1cc(COc2cccc3cnccc23)on1` (stereo not given), the IC50 was 1.81 µM.

Consider `O=C(Nc1cccc2ccccc12)OC1C=CS(=O)(=O)C1` (stereo not given), for which the IC50 is 51.2 µM (inactive).

Turning to `COc1cc(/C=C2/SC(=Nc3ccc(O)cc3)NC2=O)ccc1O`, the half-inhibitory concentration (IC50) is 3.51 µM.

Take `O=C(Nc1ccc(N2CCCCC2)cc1)c1ccccn1`: the IC50 was 3.23 µM.

In the case of `COC(=O)c1[nH]c2c(c1C)C(=O)CC(c1cccs1)C2` (stereo not given), the IC50 was 1.92 µM.

For the compound `O=C(NC(Nc1nc2ccc([N+](=O)[O-])cc2s1)(C(F)(F)F)C(F)(F)F)c1ccccc1`, the IC50 is > 80 µM (inactive).

In the case of `Cc1cc(C(=O)N2CC=C(c3ccccc3)CC2)c2ccccc2n1`, the IC50 is 5.69 µM.

For `CC(C)CCOc1cccc(OCC(=O)Nc2ccncc2)c1`, the half-inhibitory concentration (IC50) is 1.97 µM.

Turning to `C=CCSc1nc2ccccc2n1C(=O)/C=C/c1cc(OC)c(OC)c(OC)c1`, the IC50 was 21.2 µM (inactive).

`Cc1cc(NC(=O)CSc2nc3c(sc4ccccc43)c(=O)n2CCCN2CCOCC2)n[nH]1`: the IC50 is 1.02 µM.

`COc1ccc(OC)c(Nc2cc(-c3ccccc3)nc(N)n2)c1`: the IC50 was 3.41 µM.

On to `CCOC(=O)N/N=C/c1c(C)nn(-c2cccc(C(F)(F)F)c2)c1Cl`, for which the IC50 was 8.93 µM.

With `CS(=O)(=O)c1ccc(Sc2nc3ccccc3s2)c([N+](=O)[O-])c1`, the IC50 was 17.1 µM.

For the compound `C[C@]12CC[C@H]3[C@@H](CC[C@]4(O)C[C@@H](O)CC[C@]34C=O)[C@@]1(O)CC[C@@H]2C1=CC(=O)OC1`, the IC50 was 0.34 µM.

In the case of `COc1cc2nc(NC(=O)c3ccco3)sc(=O)c2cc1OC`, the IC50 is 66.7 µM (inactive).

As to `COc1ccc(N(C(=O)c2ccccc2C)S(=O)(=O)c2cccs2)cc1`, the IC50 was > 80 µM (inactive).

For `COc1ccc(OC)c(-c2nnc3n2N=C(c2ccc(OC)c(OC)c2)CS3)c1`, the IC50 is 0.65 µM.

As for `COc1cc(C(=O)Nc2ccc3c(c2)ncn3C)cc(OC)c1OC`, the IC50 was 14.7 µM.

In the case of `O=C(N[C@@H](Cc1ccccc1)C(=O)CCl)OCc1ccccc1`, the IC50 is 15.9 µM.

On to `Cc1ccc(C(=O)c2cc([N+](=O)[O-])ccc2N2CCOCC2)cc1C`, for which the IC50 is 10.3 µM.

For the compound `Cc1ccc(C)c(N=Nc2ccc(O)c3ncccc23)c1`, the IC50 is 21 µM (inactive).

As for `COc1ccc(NC(=O)Cn2nnc(-c3ccccc3NS(=O)(=O)c3ccc(OC)cc3)n2)cc1`, the concentration for half-maximal inhibition (IC50) was 13.6 µM.

For the compound `COC(=O)c1ccccc1NC(=O)CSc1nc(-c2ccco2)cc(C(F)(F)F)n1`, the IC50 is 7.95 µM.

Consider `CCCCCOC(=O)c1[nH]c2c(c1C)C(=O)CC(c1ccco1)C2` (stereo not given), for which the IC50 was 0.41 µM.

For the compound `COc1cc(NCCCCCCCN)c2ncccc2c1`, the concentration for half-maximal inhibition (IC50) is 11.8 µM.

With `COc1cc(/C=C/c2ccc3cccc(O)c3n2)cc(OC)c1OC`, the IC50 was > 80 µM (inactive).

As to `CCN(CC)c1ccc(/C=C/c2ccc3ccc(OC)cc3[n+]2CC)cc1`, the IC50 was 0.72 µM.

As to `Cc1csc2ncnc(NC3CCN(Cc4ccccc4)CC3)c12`, the IC50 is 2.22 µM.

As to `O=C(Nc1ccn(Cc2ccccc2F)n1)c1ccc(COc2ccc(Br)cc2)cc1`, the IC50 is 1.55 µM.

On to `CCCCCn1c2c(c(=N)c3ccccc31)CCC2`, for which the IC50 is 1.75 µM.

Take `O=c1cc(-c2ccccc2)[nH]c2cc(F)ccc12`: the 50% inhibitory concentration (IC50) is 2.62 µM.

With `COc1ccc(OC)c(NS(=O)(=O)c2ccc(N3CCCC3=O)cc2)c1`, the IC50 is 4.36 µM.

For the compound `CC1CC(C)CN(S(=O)(=O)c2ccc(NC(=O)c3ccc(=O)[nH]c3)cc2)C1` (stereo not given), the IC50 was 12.6 µM.

Regarding `C/C=C(\C)C(=O)N[C@@H](c1ccccc1)[C@@H](O)C(=O)O[C@H]1C[C@@]2(O)[C@@H](OC(=O)c3ccccc3)C3[C@](C)(C(=O)[C@H](O)C(=C1C)C2(C)C)[C@@H](O)C[C@H]1OC[C@@]31OC(C)=O` (stereo not given in full), the IC50 was > 80 µM (inactive).

Take `O=c1oc2ccccc2cc1-c1cn(-c2ccccc2)c(=S)[nH]1`: the IC50 was 4.59 µM.

With `CCn1ncc(C2=NOC(C(=O)NCc3ccccc3)C2)c1C` (stereo not given), the IC50 was 2.39 µM.

For `CC(C)(C)c1ccc(C(=O)O/N=C(\N)c2ccccc2)cc1`, the IC50 was 0.31 µM.

On to `CC(=O)O[C@H]1C(=O)[C@]2(C)[C@H]([C@H](OC(=O)c3ccccc3)[C@]3(O)C[C@H](OC(=O)[C@H](O)[C@@H](NC(=O)c4ccccc4)c4ccccc4)C(C)=C1C3(C)C)[C@]1(OC(C)=O)CO[C@@H]1C[C@@H]2O`, for which the IC50 was 76.2 µM (inactive).

For `Cc1noc(C)c1COc1cccc(C(=O)OCC(=O)N2CC(=O)Nc3ccccc32)c1`, the IC50 was 24.9 µM (inactive).

`O=C(COc1ccc(C(=O)c2ccccc2)cc1)NCc1ccc(F)cc1`: the half-inhibitory concentration (IC50) is 6.31 µM.

Consider `Nc1ncn([C@@H]2O[C@H](CO)[C@@H](O)[C@H]2O)c(=O)n1`, for which the IC50 is 4.76 µM.

As to `Cc1nn(-c2ccccc2Cl)c(Cl)c1/C=N/Nc1nc2ccccc2s1`, the IC50 is below 0.16 µM.

As for `O=C(c1ccc(Br)cc1)c1cc([N+](=O)[O-])ccc1N1CCOCC1`, the IC50 was 10.8 µM.

As to `CCC/C(O)=C1\C(=O)CC(C)(C)CC1=Nc1ccc(OC)cc1OC`, the IC50 is 18.4 µM.

For `COc1cccc(-c2cc(=O)c3cc(NC(=O)c4ccc(N(C)C)cc4)ccc3[nH]2)c1`, the IC50 is > 80 µM (inactive).

`COc1ccc(OC)c2c1C(=O)C(Cl)=C(Cl)C2=O`: the IC50 was 3.96 µM.

For `CCOc1ccccc1NC(=O)Cn1nnc(C(=O)NCc2cccs2)c1N`, the IC50 is 2.87 µM.

On to `Cc1cccc(N(C)S(=O)(=O)c2ccc(-c3cnc(C4CC4)o3)cc2)c1`, for which the IC50 is 0.57 µM.

Turning to `CCOC(=O)Nc1nc(-c2ccccc2)c(C(=O)c2ccc(Cl)cc2)s1`, the IC50 was 3.06 µM.

For `Cc1ccc(C(=O)Nc2cc3ccccc3oc2=O)cc1`, the IC50 was 0.94 µM.

`Cc1ncoc1C(=O)NC1CCCc2c1cnn2-c1ccc(C(C)(C)C)cc1` (stereo not given): the IC50 is 3.41 µM.

Turning to `C[C@]12CC[C@@H]3c4cc(O)c(O)cc4CC[C@H]3[C@@H]1CC[C@@H]2O`, the IC50 was 45 µM (inactive).

With `COC(=O)c1ccccc1NC(=O)Cn1c(-c2nonc2N)nc2ccccc21`, the IC50 was 3.77 µM.

`CCOC(=O)c1[nH]c(C)c(C(=O)Nc2cc(OC)ccc2OC)c1C`: the IC50 is > 80 µM (inactive).

Turning to `COc1cc(C(=O)Nc2ccc3c(c2)CCN3C(C)=O)cc(OC)c1OC`, the IC50 is 4.83 µM.

Take `O=c1cc(-c2ccccc2)[nH]c2ccccc12`: the IC50 was 15.5 µM.

As for `O=C(Nc1nc(-c2ccccc2)cs1)c1ccc(N2CCOCC2)c([N+](=O)[O-])c1`, the IC50 was 1.1 µM.

For the compound `CCCCC(=O)NC(c1ccc(N(C)C)cc1)c1ccc2cccnc2c1O` (stereo not given), the IC50 is > 80 µM (inactive).

As for `O=C(COc1ccccc1-c1ccccc1)N/N=C/c1cccc2ccccc12`, the IC50 is 8 µM.

Take `CC(=O)Nc1ccc(S(=O)(=O)N2c3ccc(F)cc3CCC2C)cc1` (stereo not given): the 50% inhibitory concentration (IC50) is 14.6 µM.

With `COc1ccccc1NC(=O)c1cnc(Nc2ccccc2OC)c2ccccc12`, the IC50 is > 80 µM (inactive).

In the case of `Cc1ccc2c(c1)Oc1ccc(NC(=O)CCl)cc1C(=O)N2`, the IC50 is 2.71 µM.

Take `O=C(NCCc1ccccc1)c1ccc2c(c1)OCCO2`: the IC50 was 1.3 µM.

In the case of `Cc1cccc(N2CCN(C(=O)c3c(-c4ccccc4)noc3C)CC2)c1C`, the IC50 is 11.1 µM.

As for `COc1ccccc1-c1nnc2n1N=C(c1ccc(O)c(O)c1)CS2`, the IC50 was 2.41 µM.

`COc1ccc(OCC(=O)Nc2ccccc2N2CCCCC2)cc1`: the IC50 is 12 µM.

For the compound `Nc1nc(Cl)cc(N2CCC(c3cc(-c4ccc(Cl)cc4)n[nH]3)CC2)n1`, the IC50 was 2.44 µM.

With `COc1ccc(/C=c2/sc3n(c2=O)C(c2ccccc2OC)C2=C(N=3)c3ccccc3CC2)cc1O` (stereo not given), the IC50 was > 80 µM (inactive).

As to `COc1ccc(CC(=O)Nc2nc(-c3ccc(F)c(F)c3)cs2)cc1OC`, the IC50 was 2.87 µM.

Turning to `Cc1ccc(C(=O)Nc2ncc(Cc3ccc(SC(F)F)cc3)s2)cc1`, the IC50 is > 80 µM (inactive).

On to `CCCCCCCCCCn1ccc(=N)cc1`, for which the concentration for half-maximal inhibition (IC50) was 0.61 µM.

As to `O=C(Nc1ccc(S(=O)(=O)Nc2ccc(F)cc2)cc1)c1ccc(CN2CCOCC2)cc1`, the IC50 is 5.68 µM.

Turning to `CC(=O)Nc1ccc(S(=O)(=O)N2CCCc3ccccc32)cc1`, the IC50 is 26.6 µM (inactive).

In the case of `CC(=O)NC(c1ccc2ccccc2c1)c1ccc2cccnc2c1O` (stereo not given), the IC50 is 41.3 µM (inactive).

As for `O=C(Nc1ccc(S(=O)(=O)N2CCN(Cc3ccccc3)CC2)cc1)c1cnccn1`, the IC50 was 1.51 µM.

As for `CCN(CC)S(=O)(=O)c1ccc(NC(=O)c2ccc(CN3CCOCC3)cc2)cc1`, the IC50 is 2.54 µM.

For the compound `CCC(=O)NC(c1ccc(C)cc1)c1ccc2cccnc2c1O` (stereo not given), the IC50 was 0.73 µM.

With `CC/C=C/CC(=O)N[C@@H](c1ccccc1)[C@@H](O)C(=O)O[C@H]1C[C@@]2(O)[C@@H](OC(=O)c3ccccc3)C3[C@](C)(C(=O)[C@H](OC(C)=O)C(=C1C)C2(C)C)[C@@H](O)C[C@H]1OC[C@@]31OC(C)=O` (stereo not given in full), the IC50 is > 80 µM (inactive).

Consider `C=CCOC(=O)c1[nH]c2c(c1C)C(=O)CC(c1ccco1)C2` (stereo not given), for which the concentration for half-maximal inhibition (IC50) was below 0.16 µM.

Consider `C[C@]12CC[C@H](O)C[C@H]1CC[C@@H]1[C@@H]2CC[C@]2(C)[C@@H](C3=CC(=O)OC3)CC[C@]12O`, for which the IC50 was below 0.16 µM.

For the compound `COc1cc(NS(=O)(=O)c2ccc(C)cc2)c2ncccc2c1`, the 50% inhibitory concentration (IC50) was 1.65 µM.
